Assay results published in ChEMBL document CHEMBL1143454, “Arylphthalazines: identification of a new phthalazine chemotype as inhibitors of VEGFR kinase” (Bioorg Med Chem Lett, 2005).

The compounds below were run against Vascular endothelial growth factor receptor 1 (Homo sapiens) (UniProt P17948) (assay: Percent inhibition of Vascular endothelial growth factor receptor 1 at 10 uM).
Vascular endothelial growth factor receptor 1 (Homo sapiens), sequence (P17948 whole entry): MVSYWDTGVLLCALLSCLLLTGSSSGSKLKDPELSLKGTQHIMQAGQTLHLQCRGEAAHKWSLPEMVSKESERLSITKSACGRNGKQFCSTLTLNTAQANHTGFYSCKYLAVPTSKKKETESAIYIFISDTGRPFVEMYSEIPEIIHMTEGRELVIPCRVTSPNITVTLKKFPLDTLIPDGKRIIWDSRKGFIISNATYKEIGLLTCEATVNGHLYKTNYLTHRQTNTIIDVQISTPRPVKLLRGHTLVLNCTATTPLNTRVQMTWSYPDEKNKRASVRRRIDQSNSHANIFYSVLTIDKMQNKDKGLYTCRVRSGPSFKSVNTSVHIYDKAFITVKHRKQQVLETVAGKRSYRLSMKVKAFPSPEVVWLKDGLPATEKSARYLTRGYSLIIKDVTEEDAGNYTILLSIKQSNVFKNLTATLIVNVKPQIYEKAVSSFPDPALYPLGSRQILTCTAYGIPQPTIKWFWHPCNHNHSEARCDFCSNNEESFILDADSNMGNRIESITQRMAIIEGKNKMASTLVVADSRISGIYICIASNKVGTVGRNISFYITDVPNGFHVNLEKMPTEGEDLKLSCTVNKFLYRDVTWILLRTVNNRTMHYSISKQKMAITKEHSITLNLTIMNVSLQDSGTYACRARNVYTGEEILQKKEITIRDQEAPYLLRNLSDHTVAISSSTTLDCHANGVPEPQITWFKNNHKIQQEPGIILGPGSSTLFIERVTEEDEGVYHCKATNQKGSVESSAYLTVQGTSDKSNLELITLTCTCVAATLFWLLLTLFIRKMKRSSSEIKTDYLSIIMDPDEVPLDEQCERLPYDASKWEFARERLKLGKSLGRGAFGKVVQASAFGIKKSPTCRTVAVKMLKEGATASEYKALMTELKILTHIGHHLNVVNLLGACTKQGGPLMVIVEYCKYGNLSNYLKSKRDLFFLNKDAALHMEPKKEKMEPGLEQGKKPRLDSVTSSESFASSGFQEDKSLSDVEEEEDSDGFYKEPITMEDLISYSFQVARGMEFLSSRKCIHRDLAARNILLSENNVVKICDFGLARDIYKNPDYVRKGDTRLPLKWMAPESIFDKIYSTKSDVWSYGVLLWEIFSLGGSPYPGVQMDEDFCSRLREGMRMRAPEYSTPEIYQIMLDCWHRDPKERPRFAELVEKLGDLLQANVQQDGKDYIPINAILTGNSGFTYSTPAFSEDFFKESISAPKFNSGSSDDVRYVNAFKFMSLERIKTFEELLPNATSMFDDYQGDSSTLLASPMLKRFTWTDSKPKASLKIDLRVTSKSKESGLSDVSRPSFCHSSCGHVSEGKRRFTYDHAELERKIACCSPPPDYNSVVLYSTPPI

| Structure (SMILES) | inhibition [%] |
| --- | --- |
| CC(C)(C)c1cccc(Nc2nnc(-c3ccc(C(N)=O)cc3)c3ccccc23)c1 | 60 |
| NC(=O)c1ccc(-c2nnc(Nc3ccc(Br)cc3)c3ccccc23)cc1 | 53 |
| CC(C)(C)c1ccc(Nc2nnc(-c3ccc(C(N)=O)cc3)c3ccccc23)cc1 | 73 |
| NC(=O)c1ccc(-c2nnc(Nc3cccc(Br)c3)c3ccccc23)cc1 | 51 |

The compounds below were run against Vascular endothelial growth factor receptor 2 (Homo sapiens, UniProt P35968) (assay: Inhibition of Vascular endothelial growth factor receptor 2 kinase phosphorylation of pGAT-biotin peptide).
Vascular endothelial growth factor receptor 2, sequence (P35968 whole entry): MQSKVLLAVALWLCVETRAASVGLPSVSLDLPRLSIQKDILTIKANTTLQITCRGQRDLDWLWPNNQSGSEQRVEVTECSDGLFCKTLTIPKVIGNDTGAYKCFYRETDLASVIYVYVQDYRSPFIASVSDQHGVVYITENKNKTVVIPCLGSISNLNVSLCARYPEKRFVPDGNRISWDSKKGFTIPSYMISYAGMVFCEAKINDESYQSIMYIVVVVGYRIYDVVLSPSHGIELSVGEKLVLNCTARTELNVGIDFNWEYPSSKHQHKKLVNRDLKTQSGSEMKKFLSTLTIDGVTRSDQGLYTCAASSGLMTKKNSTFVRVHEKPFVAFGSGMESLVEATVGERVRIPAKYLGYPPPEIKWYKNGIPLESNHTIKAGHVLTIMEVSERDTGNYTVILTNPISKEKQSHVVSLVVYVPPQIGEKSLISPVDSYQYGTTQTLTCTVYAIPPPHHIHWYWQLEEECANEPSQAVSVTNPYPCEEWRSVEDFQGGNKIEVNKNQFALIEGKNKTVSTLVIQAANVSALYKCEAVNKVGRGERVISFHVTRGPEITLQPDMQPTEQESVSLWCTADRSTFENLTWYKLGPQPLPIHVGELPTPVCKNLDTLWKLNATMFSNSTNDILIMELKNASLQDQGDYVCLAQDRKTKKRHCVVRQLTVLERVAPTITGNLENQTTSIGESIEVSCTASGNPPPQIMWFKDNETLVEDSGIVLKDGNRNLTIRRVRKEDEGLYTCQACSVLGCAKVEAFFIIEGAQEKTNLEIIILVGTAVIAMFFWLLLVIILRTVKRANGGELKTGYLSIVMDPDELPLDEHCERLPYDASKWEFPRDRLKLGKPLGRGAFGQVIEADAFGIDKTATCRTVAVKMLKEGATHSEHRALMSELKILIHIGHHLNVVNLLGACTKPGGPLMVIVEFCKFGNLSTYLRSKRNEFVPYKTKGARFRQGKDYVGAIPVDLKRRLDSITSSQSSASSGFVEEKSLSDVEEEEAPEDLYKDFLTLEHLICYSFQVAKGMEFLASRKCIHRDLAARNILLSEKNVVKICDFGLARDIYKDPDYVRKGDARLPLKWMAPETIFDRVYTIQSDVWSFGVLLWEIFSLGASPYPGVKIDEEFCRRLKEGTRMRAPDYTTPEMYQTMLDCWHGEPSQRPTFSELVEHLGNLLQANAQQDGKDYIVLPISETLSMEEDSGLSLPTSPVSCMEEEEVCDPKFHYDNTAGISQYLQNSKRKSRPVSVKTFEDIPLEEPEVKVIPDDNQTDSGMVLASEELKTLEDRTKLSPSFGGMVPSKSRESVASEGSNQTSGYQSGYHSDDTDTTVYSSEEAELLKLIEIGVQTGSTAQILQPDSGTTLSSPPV

| Structure (SMILES) | IC50 [µM] |
| --- | --- |
| CCOc1ccc(-c2nnc(Nc3ccc(C)cc3)c3ccccc23)cc1 | > 10 |
| Cc1ccc(-c2nnc(Nc3ccc(OC(F)(F)Cl)cc3)c3ccccc23)cc1S(=O)(=O)NC(C)C | > 10 |
| O=C(NCCO)c1ccc(-c2nnc(Nc3ccc(OC(F)(F)Cl)cc3)c3ccccc23)cc1 | 1.1 |
| NC(=O)c1ccc(-c2nnc(Nc3ccc(S(N)(=O)=O)cc3)c3ccccc23)cc1 | > 10 |
| CC(C)(C)NC(=O)c1ccc(-c2nnc(Nc3ccc(OC(F)(F)Cl)cc3)c3ccccc23)cc1 | > 10 |
| COc1ccc(Nc2nnc(-c3ccc(C(N)=O)cc3)c3ccccc23)cc1 | 2 |
